ChEMBL document CHEMBL6078671, “Synthesis of aromatic glycoconjugates as anti-fungal agents against Candida spp. and assessment of their covalent crosslinking capabilities” (2025)
Converted amounts (≈) assume the structure as drawn.

Key:
Assay type in all cases: functional
[1] = system: [Candida] auris; assay: Fungicidal activity against Candida auris ATCC CMYA-5001 incubated for 24 hrs followed by replacement of medium without compound measured after 48 hrs; conditions: Candidozyma auris
[2] = system: Meyerozyma guilliermondii; assay: Fungicidal activity against Candida guilliermondii C94 incubated for 24 hrs followed by replacement of medium without compound measured after 48 hrs
[3] = system: Candida albicans; assay: Fungicidal activity against Candida albicans ATCC 10231 incubated for 24 hrs followed by replacement of medium without compound measured after 48 hrs
[4] = system: Clavispora lusitaniae; assay: Fungicidal activity against Candida lusitaniae C18 incubated for 24 hrs followed by replacement of medium without compound measured after 48 hrs
[5] = system: Nakaseomyces glabratus; assay: Fungicidal activity against Candida glabrata ATCC 90030 incubated for 24 hrs followed by replacement of medium without compound measured after 48 hrs
[6] = system: Candida parapsilosis; assay: Fungicidal activity against Candida parapsilosis ATCC 22019 incubated for 24 hrs followed by replacement of medium without compound measured after 48 hrs; conditions: Lodderomyces parapsilosis

Structure (SMILES) | MFC [1] | MFC [2] | MFC [3] | MFC [4] | MFC [5] | MFC [6]
C=CS(=O)(=O)Nc1cc(C(=O)NCc2cn([C@@H]3O[C@H](CO)[C@H](O)[C@H](O)[C@H]3O)nn2)cc(C(=O)NCc2cn([C@@H]3O[C@H](CO)[C@H](O)[C@@H](O)[C@@H]3O)nn2)c1 | 10000 µg/mL (≈ 13.2 mM) | 10000 µg/mL (≈ 13.2 mM) | > 10000 µg/mL | > 10000 µg/mL | 10000 µg/mL (≈ 13.2 mM) | > 10000 µg/mL
C=CC(=O)Nc1cc(C(=O)NCc2cn([C@H]3O[C@@H](C)[C@@H](O)[C@@H](O)[C@@H]3O)nn2)cc(C(=O)NCc2cn([C@H]3O[C@@H](C)[C@@H](O)[C@H](O)[C@@H]3O)nn2)c1 | > 10000 µg/mL | > 10000 µg/mL | > 10000 µg/mL | > 10000 µg/mL | > 10000 µg/mL | > 10000 µg/mL
C=CS(=O)(=O)Nc1cc(C(=O)NCc2cn([C@H]3O[C@@H](C)[C@@H](O)[C@@H](O)[C@@H]3O)nn2)cc(C(=O)NCc2cn([C@H]3O[C@@H](C)[C@@H](O)[C@H](O)[C@@H]3O)nn2)c1 | > 10000 µg/mL | > 10000 µg/mL | > 10000 µg/mL | > 10000 µg/mL | > 10000 µg/mL | > 10000 µg/mL
CCC(=O)Nc1cc(C(=O)NCc2cn([C@@H]3O[C@H](CO)[C@H](O)[C@H](O)[C@H]3O)nn2)cc(C(=O)NCc2cn([C@@H]3O[C@H](CO)[C@H](O)[C@@H](O)[C@@H]3O)nn2)c1 |  | 10000 µg/mL (≈ 13.9 mM) |  |  | 10000 µg/mL (≈ 13.9 mM) | 
C=CC(=O)Nc1cc(C(=O)NCc2cn([C@H]3O[C@H](CO)[C@@H](O)[C@H](O)[C@@H]3O)nn2)cc(C(=O)NCc2cn([C@H]3O[C@H](CO)[C@@H](O)[C@H](O)[C@@H]3O)nn2)c1 |  | > 10000 µg/mL | > 10000 µg/mL | > 10000 µg/mL | > 10000 µg/mL | > 10000 µg/mL
